Measured values published in patent US6858638B2, “Substituted indazoles, compositions containing them, method of production and use” (Aventis Pharma S.A., priority 2002, dated 2005).

Assays:
Type in all cases: biochemical
Aurora2 kinase = target: T1, Aurora2 kinase (Homo sapiens, UniProt O14965); test: Aurora2 kinase radioactivity scintillation assay using nickel chelate (NuMA substrate); conditions: 10 μM; for inhibition at 10 µM: read-out: Aurora2 % inhib at 10 μM
T1 construct: A complete recombinant Aurora2 enzyme; His tag (N); made in house; host or cells: E. coli
T1 sequence (O14965 1-403): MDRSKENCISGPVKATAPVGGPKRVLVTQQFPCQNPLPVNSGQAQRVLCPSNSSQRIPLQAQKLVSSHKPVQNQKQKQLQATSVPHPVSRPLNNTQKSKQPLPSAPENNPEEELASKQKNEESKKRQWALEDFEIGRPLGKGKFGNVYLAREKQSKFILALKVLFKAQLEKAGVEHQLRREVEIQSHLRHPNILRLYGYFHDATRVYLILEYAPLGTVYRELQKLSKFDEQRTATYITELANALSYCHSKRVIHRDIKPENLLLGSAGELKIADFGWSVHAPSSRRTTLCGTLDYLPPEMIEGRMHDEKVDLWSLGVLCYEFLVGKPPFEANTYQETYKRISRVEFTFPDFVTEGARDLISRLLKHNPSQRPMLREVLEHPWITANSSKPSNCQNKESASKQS
Experimental: The inhibitory effect of compounds with respect to the Aurora2 kinase is determined with a radioactivity scintillation assay using nickel chelate.
A complete recombinant Aurora2 enzyme, the N-terminal end of which was labeled with histidine, was expressed in E. coli and purified to a quality close to homogeneity.
The C-terminal fragment (Q1687-H2101) of a NuMA (Nuclear protein that associates with the Mitotic Apparatus) expressed in E. coli, and the N-terminal end of which was labeled with histidine, was purified by nickel chelate chromatography and used as substrate in the Aurora2 kinase assay. In order to determine the kinase activity, the NuMA substrate is equilibrated by chromatography on a Pharmacia PD10 column, in a buffer (50 mM Tris HCl, pH7.5, 50 mM NaCl, 10 mM MgCl2) to which 10% (v/v) of glycerol and 0.05% (w/v) of NP40 have been added.
The kinase acivitity of Aurora2 is measured by scintillation with nickel chelate (New England Nuclear, model SMP107). Each well contains 100 μl of the following solution: 0.02 μM of Aurora2; 0.5 μM of NuMA substrate; 1 μM of ATP to which 0.5 μCi of ATP-[^33P] has been added. The solutions are incubated for 30 minutes at 37° C. The assay buffer is then removed and the wells are rinsed twice with 300 μl of kinase buffer. The radioactivity is measured in each well using a Packard Model Top Count NXT device.
The background noise is deduced from the measurement of radioactivity by measuring, in duplicate, in wells containing the radioactive ATP alone containing buffered kinase treated in the same way as the other samples.
The activity of the control is determined by measuring, in duplicate, the radioactivity in the complete assay mixture (ATP, Aurora2 and the NuMA substrate) in the absence of test compound.
The inhibition of the Aurora2 with a compound of the invention is expressed as percentage inhibition of the control activity in the absence of test compound. Staurosporine is added to each plate as an inhibition control.

human FAK = target: T2, human FAK (Homo sapiens, UniProt Q05397); test: FAK autophosphorylation inhibition, time resolved fluorescence (HTRF) assay; conditions: 10 μM (values without asterisk); for inhibition at 10 µM: read-out: FAK % inhib at 10 μM
T2 construct: The complete cDNA of human FAK; made in house; host or cells: baculovirus expression system (vector pFastBac HTc)
Experimental: The inhibitory activity of the compounds on FAK is determined by measuring the inhibition of the autophosphorylation of the enzyme using a time resolved fluorescence (HTRF) assay.
The complete cDNA of human FAK, the N-terminal end of which was labeled with histidine, was cloned into a baculovirus expression vector pFastBac HTc. The protein was expressed and purified to approximately 70% homogeneity.
The kinase activity is determined by incubating the enzyme (6.6 μg/ml) with various concentrations of test compound in a 50 mM Hepes buffer, pH=7.2, containing 10 mM MgCl2, 100 μM Na3VO4 and 15 μM d'ATP for 1 hour at 37° C. The enzyme reaction is stopped by adding Hepes buffer, pH=7.0, containing […], 133 mM EDTA and 0.1% BSA, and the labeling is carried out, over 1 to 2 hours at ambient temperature, by adding to this buffer an anti-Histidine antibody labeled with XL665 and a monoclonal antibody phosphospecific for tyrosine, conjugated to europium cryptate (Eu-K). The characteristics of the two fluorophores are available in G. Mathis et al., Anticancer Research, 1997, 17, pages 3011-3014. The transfer of energy from the excited europium cryptate to the XL665 acceptor is proportional to the degree of autophosphorylation of FAK. The long-lived signal specific for XL-665 is measured in a Packard Discovery plate counter. All the assays are carried out in duplicate and the mean of the two assays is calculated. The inhibition of the FAK autophosphorylation activity with compounds of the invention is expressed as percentage inhibition compared to a control whose activity is measured in the absence of test compound. The [signal at 665 nm/signal at 620 nm] ratio is used for the calculation of the % inhibition.

human KDR enzyme = target: T3, human KDR enzyme (Homo sapiens, UniProt P35968); test: KDR substrate (PLCγ) phosphorylation, scintillation assay; conditions: 10 μM; for inhibition at 10 µM: read-out: KDR % inhib at 10 μM
T3 construct: The cytoplasmic domain of the human KDR enzyme; GST; made in house; host or cells: SF21 insect cells (baculovirus)
Experimental: The inhibitory effect of the compounds is determined in an assay of substrate phosphorylation by the KDR enzyme in vitro using a scintillation technique (96-well plate, NEN).
The cytoplasmic domain of the human KDR enzyme was cloned in the form of a GST fusion into the baculovirus expression vector pFastBac. The protein was expressed in SF21 cells and purified to approximately 60% homogeneity.
The KDR kinase activity is measured in 20 mM MOPS, 10 mM MgCl2, 10 mM MnCl2, 1 mM DTT, 2.5 mM EGTA, 10 mM β-glycerophosphate, pH=7.2, in the presence of 10 mM MgCl2, 100 μM Na3VO4, 1 mM NaF. 10 μl of the compound are added to 70 μl of kinase buffer containing 100 ng of KDR enzyme at 4° C. The reaction is triggered by adding 20 μl of solution containing 2 μg of substrate (SH2-SH3 fragment of PLCγ expressed in the form of a GST fusion protein), 2 μCi γ^33P[ATP] and 2 μM cold ATP. After incubation for 1 hour at 37° C., the reaction is stopped by adding 1 volume (100 μl) of 200 mM EDTA. The incubation buffer is removed and the wells are washed three times with 300 μl of PBS. The radioactivity is measured in each well using Top Count NXT radioactivity counter (Packard).
The background noise is determined by measuring the radioactivity in four different wells containing the radioactive ATP and the substrate alone.
A control for total activity is measured in four different wells containing all the reagents (γ^33P-[ATP], KDR and PLCγ substrate) but in the absence of compound.
The inhibition of the KDR activity with the compound of the invention is expressed as percentage inhibition of the control activity determined in the absence of compound.
The compound SU5614 (Calbiochem) (1 μM) is included in each plate as an inhibition control.

T3 sequence (P35968 786-1356 limits assumed): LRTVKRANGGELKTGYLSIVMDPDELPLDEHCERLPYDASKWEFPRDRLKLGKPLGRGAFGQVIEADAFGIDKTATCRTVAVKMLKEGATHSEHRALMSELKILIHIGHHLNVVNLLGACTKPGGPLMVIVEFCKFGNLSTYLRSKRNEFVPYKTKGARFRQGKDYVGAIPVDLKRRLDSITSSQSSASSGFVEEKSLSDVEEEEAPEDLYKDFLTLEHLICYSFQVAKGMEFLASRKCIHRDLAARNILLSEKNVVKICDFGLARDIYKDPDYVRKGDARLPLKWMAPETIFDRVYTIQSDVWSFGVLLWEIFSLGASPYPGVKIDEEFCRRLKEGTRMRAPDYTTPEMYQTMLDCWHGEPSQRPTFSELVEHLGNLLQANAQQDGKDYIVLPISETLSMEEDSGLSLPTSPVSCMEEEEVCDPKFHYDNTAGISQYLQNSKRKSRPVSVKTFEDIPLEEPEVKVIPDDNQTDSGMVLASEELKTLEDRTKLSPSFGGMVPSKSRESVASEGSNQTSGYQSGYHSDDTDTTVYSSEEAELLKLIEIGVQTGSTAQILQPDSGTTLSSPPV
T2 sequence (Q05397 whole entry): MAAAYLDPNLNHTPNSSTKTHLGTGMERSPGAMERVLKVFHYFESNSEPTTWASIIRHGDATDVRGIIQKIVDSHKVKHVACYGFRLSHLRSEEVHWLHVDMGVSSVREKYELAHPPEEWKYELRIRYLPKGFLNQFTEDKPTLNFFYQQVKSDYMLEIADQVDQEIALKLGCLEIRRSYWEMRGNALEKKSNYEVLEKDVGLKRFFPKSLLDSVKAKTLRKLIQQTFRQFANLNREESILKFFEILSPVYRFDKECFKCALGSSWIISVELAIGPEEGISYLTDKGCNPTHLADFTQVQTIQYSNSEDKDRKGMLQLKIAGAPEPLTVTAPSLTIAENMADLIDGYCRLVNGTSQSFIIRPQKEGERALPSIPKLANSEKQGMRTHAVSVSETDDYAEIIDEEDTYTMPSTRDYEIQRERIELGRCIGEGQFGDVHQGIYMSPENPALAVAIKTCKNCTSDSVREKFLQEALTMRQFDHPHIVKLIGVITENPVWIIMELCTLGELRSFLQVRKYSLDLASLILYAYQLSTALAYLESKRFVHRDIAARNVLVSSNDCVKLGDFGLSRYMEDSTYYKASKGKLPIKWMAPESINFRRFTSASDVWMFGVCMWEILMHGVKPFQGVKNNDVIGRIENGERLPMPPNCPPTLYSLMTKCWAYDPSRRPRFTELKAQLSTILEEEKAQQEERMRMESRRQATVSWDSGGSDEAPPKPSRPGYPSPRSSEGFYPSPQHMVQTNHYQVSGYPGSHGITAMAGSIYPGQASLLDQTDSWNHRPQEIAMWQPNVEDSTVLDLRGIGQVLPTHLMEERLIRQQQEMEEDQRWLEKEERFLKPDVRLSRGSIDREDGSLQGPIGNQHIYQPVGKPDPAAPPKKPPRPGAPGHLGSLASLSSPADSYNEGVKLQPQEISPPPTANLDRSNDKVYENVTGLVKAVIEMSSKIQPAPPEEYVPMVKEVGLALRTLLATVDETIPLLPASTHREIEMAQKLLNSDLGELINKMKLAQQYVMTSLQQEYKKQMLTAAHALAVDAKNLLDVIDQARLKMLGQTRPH

Row | inhibition at 10 µM (Aurora2 kinase) [%] | inhibition at 10 µM (human FAK) [%] | inhibition at 10 µM (human KDR enzyme) [%] | Aurora2 % inhib at 10 μM (Aurora2 kinase) [%] | FAK % inhib at 10 μM (human FAK; 10 µM) [%] | KDR % inhib at 10 μM (human KDR enzyme) [%] | SMILES
1 | 60 | 16 | 55 |  |  |  | CS(=O)(=O)Nc1ccc2[nH]nc(-c3ccccc3)c2c1 [Example 124, N-(3-Phenyl-1H-indazol-5-yl)-methanesulfonamide]
2 | 57 | 14 | 47 |  |  |  | CC(=O)Nc1ccc(S(=O)(=O)Nc2ccc3[nH]nc(-c4ccccc4)c3c2)cc1Cl [Example 146, N-[2-Chloro-4-(3-phenyl-1H-indazol-5-ylsulfamoyl)phenyl]-acetamide]
3 | 65 | 23 | 72 |  |  |  | Cc1ccc(S(=O)(=O)Nc2ccc3[nH]nc(-c4ccccc4)c3c2)cc1 [Example 122, 4-Methyl-N-(3-phenyl-1H-indazol-5-yl)-benzenesulfonamide]
4 | 92 | 84 | 24 |  |  |  | CC(=O)Nc1n[nH]c2ccc(NS(=O)(=O)c3cccc(F)c3)cc12 [Example 28, N-[5-(3-Fluorobenzenesulfonylamino)-1H-indazol-3-yl)acetamide]
5 | 82 | 30 | 62 |  |  |  | CC(C)S(=O)(=O)Nc1ccc2[nH]nc(-c3ccccc3)c2c1 [Example 123, 1-Methyl-N-(3-phenyl-1H-indazol-5-yl)ethanesulfonamide]
6 |  |  |  | 52 | 8 | 53 | CC(=O)Nc1ccc(S(=O)(=O)Nc2ccc3[nH]nc(-c4ccccc4)c3c2)cc1 [Example 118, N-[4-(3-Phenyl-1H-indazol-5-ylsulfamoyl)phenyl]acetamide]

The next lines start with the molecule.

Row | SMILES | inhibition at 10 µM (Aurora2 kinase) [%] | inhibition at 10 µM (human FAK) [%] | inhibition at 10 µM (human KDR enzyme) [%] | Aurora2 % inhib at 10 μM (Aurora2 kinase) [%] | FAK % inhib at 10 μM (human FAK; 10 µM) [%] | KDR % inhib at 10 μM (human KDR enzyme) [%]
7 | O=[N+]([O-])c1ccccc1CS(=O)(=O)Nc1ccc2[nH]nc(-c3ccccc3)c2c1 [Example 151, C-(2-Nitrophenyl)-N-(3-phenyl-1H-indazol-5-yl)-methanesulfonamide] | 84 | 33 | 63 |  |  | 
8 | O=S(=O)(Nc1ccc2[nH]nc(-c3ccccc3)c2c1)c1ccc(-c2ccon2)s1 [Example 150, N-(3-Phenyl-1H-indazol-5-yl)-(5-isoxazol-3-ylthiophene)-2-sulfonamide] | 82 | 3 | 75 |  |  | 
9 | CCCS(=O)(=O)Nc1ccc2[nH]nc(-c3ccccc3)c2c1 [Example 128, N-(3-Phenyl-1H-indazol-5-yl)propanesulfonamide] | 87 | 55 | 49 |  |  | 
10 | N#Cc1ccc(S(=O)(=O)Nc2ccc3[nH]nc(-c4ccccc4)c3c2)cc1 [Example 143, 4-Cyano-N-(3-phenyl-1H-indazol-5-yl)-benzenesulfonamide] | 64 | 23 | 87 |  |  | 
11 | CS(=O)(=O)c1ccccc1S(=O)(=O)Nc1ccc2[nH]nc(-c3cccc4cccnc34)c2c1 [Example 67, 2-Methylsulfonyl-N-(3-quinolin-8-yl-1H-indazol-5-yl)benzenesulfonamide] | 90 | 79 | 28 |  |  | 
12 | O=S(=O)(Nc1ccc2[nH]nc(-c3ccccc3)c2c1)c1ccc(OC(F)(F)F)cc1 [Example 160, 4-Trifluoromethoxy-N-(3-phenyl-1H-indazol-5-yl)benzenesulfonamide] | 26 | 3 | 51 |  |  | 
13 | Cc1c(S(=O)(=O)Nc2ccc3[nH]nc(-c4ccccc4)c3c2)sc2ccc(Cl)cc12 [Example 153, N-(3-Phenyl-1H-indazol-5-yl)-(5-chloro-3-methyl-benzo[b]thiophene)-2-sulfonamide] | 25 | 0 | 24 |  |  | 
14 | O=S(=O)(Cc1ccccc1)Nc1ccc2[nH]nc(-c3ccccc3)c2c1 [Example 125, 1-Phenyl-N-(3-phenyl-1H-indazol-5-yl)-methanesulfonamide] | 65 | 17 | 56 |  |  | 
15 | O=S(=O)(/C=C/c1ccccc1)Nc1ccc2[nH]nc(-c3ccccc3)c2c1 [Example 126, (E)-2-Phenyl-N-(3-phenyl-1H-indazol-5-yl)-ethylenesulfonamide] | 50 | 7 | 58 |  |  | 
16 | O=S(=O)(Nc1ccc2[nH]nc(-c3cc4ccccc4[nH]3)c2c1)c1cccs1 [Example 87, {N-[3-(1H-indol-2-yl)-1H-indazol-5-yl]}thiophene-2-sulfonamide] | 100 | 91 | 100 |  |  | 
17 | CS(=O)(=O)c1ccccc1S(=O)(=O)Nc1ccc2[nH]nc(-c3cccc(C(=O)O)c3)c2c1 [Example 56, 3-[5-(2-Methylsulfonylbenzenesulfonamino)-1H-indazol-3-yl]benzoic acid] | 87 | 81 | 82 |  |  | 
18 | O=S(=O)(Nc1ccc2[nH]nc(-c3ccccc3)c2c1)c1ccc(Br)cc1 [Example 116, 4-Bromo-N-(3-phenyl-1H-indazol-5-yl)-benzenesulfonamide] | 69 | 20 | 81 |  |  | 
